Where a chain is given by its changes, count along the chain named.
Columns and labels:
AR protein = biological target: T1, AR protein (Homo sapiens, UniProt P10275, T878A); experiment: Cycloheximide chasing assay of AR degradation in LNCaP cells; format: cell-based; conditions: in the presence of cycloheximide (CHX) (FIG. 7)
T1 sequence (P10275 1-920 T878A): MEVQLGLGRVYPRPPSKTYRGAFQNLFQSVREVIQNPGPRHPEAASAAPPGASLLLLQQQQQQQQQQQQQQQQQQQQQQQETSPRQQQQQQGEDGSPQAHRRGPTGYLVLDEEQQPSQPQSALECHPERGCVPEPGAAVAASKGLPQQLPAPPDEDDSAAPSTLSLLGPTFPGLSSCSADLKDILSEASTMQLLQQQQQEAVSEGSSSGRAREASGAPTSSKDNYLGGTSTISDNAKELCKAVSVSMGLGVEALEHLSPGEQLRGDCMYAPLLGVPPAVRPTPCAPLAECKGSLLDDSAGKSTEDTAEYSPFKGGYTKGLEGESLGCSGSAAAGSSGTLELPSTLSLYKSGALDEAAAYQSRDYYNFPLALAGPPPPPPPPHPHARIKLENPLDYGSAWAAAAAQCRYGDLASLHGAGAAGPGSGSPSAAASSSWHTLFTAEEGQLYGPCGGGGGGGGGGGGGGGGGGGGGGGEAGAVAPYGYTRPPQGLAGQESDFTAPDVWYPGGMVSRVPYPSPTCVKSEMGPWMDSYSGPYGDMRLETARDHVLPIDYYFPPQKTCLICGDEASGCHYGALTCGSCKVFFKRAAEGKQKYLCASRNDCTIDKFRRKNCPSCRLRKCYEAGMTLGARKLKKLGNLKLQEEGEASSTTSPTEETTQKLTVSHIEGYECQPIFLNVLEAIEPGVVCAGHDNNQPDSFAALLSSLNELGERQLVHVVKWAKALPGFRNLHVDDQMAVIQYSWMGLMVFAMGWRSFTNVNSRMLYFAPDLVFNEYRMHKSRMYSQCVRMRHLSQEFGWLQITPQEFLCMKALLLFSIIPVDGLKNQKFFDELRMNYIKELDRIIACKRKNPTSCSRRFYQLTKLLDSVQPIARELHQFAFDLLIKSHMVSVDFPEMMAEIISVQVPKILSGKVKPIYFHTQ
Description: AR protein "degradation" in prostate cancer cells was measured by using cycloheximide (a protein synthesis inhibitor) chasing assay method. Briefly, LNCaP cells were incubated with testing ASC compound at the designated concentrations for 24 hours. Subsequently, cycloheximide was added to the cells at a concentration of 15 µg/ml to block new protein synthesis. After incubation, cells were harvested at designated time periods and the resultant change in AR protein levels were analysed using Western Blot analysis as described above.

[1] = test system: CWR22Rv1 cells (human prostate cancer); experiment: MTT cell growth assay, CWR22Rv1 cells; format: cell-based; conditions: Homo sapiens, 120 h, 5 days, read-out: Inhibition of Tumor cells growth IC50
Description: The MTT cell proliferation assay was applied in the present invention to detect the capability of compounds to suppress or inhibit prostate cancer cells growth. […] Briefly, 1 x 10^3 LNCaP or CWR22Rv1 cells suspended in complete medium were plated into each well of a 96-well Microtest III tissue culture plate (Falcon, NJ). Two days later, the medium was replaced with RPMI-1640 medium containing 10% charcoal/dextran-deprived FBS (hormone-deprived fetal bovine serum). Testing compounds were added to the medium at indicated concentrations with or without 1 nM DHT and cells were cultured for 5 days in an incubator (at 37 °C). MTT substrate solution (5 mg/ml in PBS) in 1/10 of volume was added to the cells in each well at 2 hours before harvesting. After 2 hour incubation, the plates were centrifuged (10 min at 1,000 rpm) and the supernatant from each well was carefully removed. A 100 µl of lysis buffer (50% dimethyl formamide, 5% sodium dodecyl sulphate, 0.35 M acetic acid, and 50 mM HCl) was added to each well to lyse the cells and dissolved tetrazolium in each well. The relative quantity of enzyme activity from each well was measured based on absorbance read at a wavelength of 450 nm using a Bio-RAD BenchMark microplate reader. Data derived from the MTT assay were also verified by the actual cell count and cell morphology on a separate plate set up in parallel.
For inhibition of tumor cell growth, in vitro, cells were growth in the presence of testing compounds for 5 days, and the cell growth was assayed by standard MTT assay. […] Table 2: Biological activity of Compounds and Derivatives having (1E, 6E)-1,7-bis-(3,4-dimethoxyphenyl)-4,4-disubstituted-hepta-1,6-diene-3,5-dione OR (1E, 10E)-1,11-bis(substituted phenyl)- 6,6-disubstituted undeca-1,3,8,10-tetraene-5,7-dione structural scaffold

Androgen Receptor (AR) [2] = biological target: T2, Androgen Receptor (AR) (Homo sapiens, UniProt P10275, H875Y, form not given); experiment: Western Blot analysis of AR protein expression in CWR22Rv1 cells; format: cell-based; conditions: various concentrations, Western Blot (FIG. 6)
T2 sequence (P10275 1-920 H875Y): T1 sequence (P10275 1-920 T878A) with H875Y, A878T

Androgen Receptor (AR) [3] = biological target: T3, Androgen Receptor (AR) (Homo sapiens, UniProt P10275, T878A); experiment: Western Blot analysis of AR protein expression in LNCaP cells; conditions: various concentrations, Western Blot (FIG. 6)
T3 sequence (P10275 1-920 T878A): T1 sequence (P10275 1-920 T878A)

Q: With `COc1ccc(C=CC(=O)C=C(O)C=Cc2ccc(OC)c(OC)c2)cc1OC` [ASC-J9®, 1,7-Bis-(3,4-dimethoxy-phenyl)-5-hydroxy-hepta-1,4,6-trien-3-one, reference compound] as the compound, how does the AR protein degradation (AR protein) read?
A: The AR protein degradation was “enhances AR protein degradation”.

Q: What about the IC50 [1] of the same compound?
A: The IC50 was 4 µM.

Q: Which results are given for `COc1ccc(/C=C/C(=O)C(C(=O)/C=C/c2ccc(OC)c(OC)c2)=C(O)/C=C/c2ccc(OC)c(OC)c2)cc1OC` [ASC-JM4]?
A: reducing endogenous AR expression (Androgen Receptor (AR) [2]): capable of reducing endogenous AR expression; reducing endogenous AR expression (Androgen Receptor (AR) [3]): capable of reducing endogenous AR expression

Q: With `COc1ccc(/C=C/C(=O)C2CC(c3ccc(OC)c(OC)c3)(C(C(=O)/C=C/c3ccc(OC)c(OC)c3)C(=O)/C=C/c3ccc(OC)c(OC)c3)CC2=O)cc1OC` (centres unmarked) [ASC-JM5] as the compound, how does the AR protein degradation (AR protein) read?
A: Its AR protein degradation is “enhances AR protein degradation”.
